According to US6407135B1, “Conjugates of dithiocarbamates with pharmacologically active agents and uses therefor” (Medinox, Inc., priority 1997, dated 2002):

Tested on: Lewis male rats
Conditions: high doses, oral daily days 5-8 and 11-14; naproxen 10 mg/kg, conjugate 18 mg/kg

Structure (SMILES): COc1ccc2cc([C@H](C)C(=O)O)ccc2c1 [Naproxen, (S)-(+)-methoxy-α-methyl-2-naphthaleneacetic acid]
- Reduction of swelling compared to control by day 15: approximately 70%
